Consider 8 compounds from patent publication US11147807B2, “Pharmaceutical composition containing DUSP1 inhibitor” (INDUSTRY-UNIVERSITY COOPERATION FOUNDATION HANYANG …, priority 2017, dated 2021).

Where two headings read alike, the source gives them in different places.

In test [1] the target is T1, DUSP1 enzyme (activation domain, amino acid residues 166-316) (Homo sapiens, UniProt P28562).
T1 construct: made in house; host or cells: E. coli BL21
T1 sequence (P28562 166-316): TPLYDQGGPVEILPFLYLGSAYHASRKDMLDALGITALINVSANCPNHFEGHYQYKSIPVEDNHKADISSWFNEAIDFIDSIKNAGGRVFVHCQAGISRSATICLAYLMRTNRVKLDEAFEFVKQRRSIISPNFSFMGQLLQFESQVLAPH
Put plainly: DUSP1 activity inhibitory potency, fluorescence enzyme assay with DiFMUP substrate. Type of test: biochemical. The conditions noted are these: 50 nM DUSP1 activation domain, 10 μM DiFMUP, 5% DMSO. The procedure:
The inhibitory potency of the DUSP1 activity on 8 kinds of the compounds screened in Example 1 was measured.
As the assay buffer, 20 mM Tris-HCl (pH 8.0), 0.01% Triton X-100 and 5 mM DTT were used, and a fluorescent substrate of 6,8-difluoro-4-methylumbelliferyl phosphate (DiFMUP) 10 μM was used as the substrate. The DUSP1 enzyme was expressed and purified from the activation domain (amino acid residues 166-316) and was used at 50 nM concentration in the enzyme reaction.
The expression and purification of the activation domain was carried out in the following manner. The DUSP1 activation domain (amino acid residues 166-316) was cloned into the pET28a (Novagen) vector and expressed in E. coli BL21 strain. The E. coli transformed with the expression vector of the DUSP1 activation domain was promoted with 0.1 mM of IPTG (isopropyl β-D-1-thiogalactopyranoside) at 37° C. The E. coli expressed with the DUSP1 activation domain was purified using a nickel affinity column after being crushed with a sonicator. The purified protein was quantified by the Bradford assay and used for the enzyme reaction.
The fluorescence generated by the enzymatic action was measured using a Victor spectrofluorometer (PerkinElmer) with an excitation/emission wavelength of 355 nm/460 nm. From the obtained results, the intermediate suppression value (IC50) was determined according to a 4-parameter logistic method of the Sigmaplot program package (Systat software Inc.), and the measurement results of the DUSP1 enzyme activity inhibitory potency were shown in Table 2 below.

Test [2] has as its system normal hepatocyte line BNL-CL2. Kind of test: MTT analysis on normal hepatocyte line. Type of test: cell-based. The following applies: 96 hours; for cell growth rate (MTT), BNL-CL2 cell line, compound concentration 5.0 μM: BNL-CL2, 5.0 μM, unit assumed. Here is the method: (§1) The MTT analysis was performed to confirm the potency of inhibiting the growth of liver cancer cells of the DUSP1 inhibitor compound of the present invention.
(§2) A human liver cancer cell line Hep3B was cultured in DMEM, 10% FBS, 1% Anti-anti (Gibco) and prepared in a 96-well plate at a density of 7,000 cells/well. A normal hepatocyte line BNL-CL2 cell was cultured in DMEM, 10% FBS, 1% Anti-anti (Gibco) and prepared in a 96-well plate at a density of 3,000 cells/well.
(§3) After incubating at 37° C. for 15 hours, Compounds 6 to 8 were treated at the time of medium exchange so that final concentrations of the compounds in the medium become 2.5 μM and 5.0 μM, respectively, and the treatment conditions were adjusted so that the final DMSO concentration in the medium after treatment of the compounds can be maintained to 0.5%.
(§4) After 96 hours, a cell growth rate was measured using the Roche Cell […] Assay I (MTT) Kit. 10 μL of the MTT solution was added to each of 100 μL wells to a final concentration of 0.5 mg/ml, and then incubated at 37° C. for 4 hours and 100 μL of the solubilization buffer provided in the Kit was added.

Test [3] deals with human liver cancer cell line Hep3B xenograft. Put plainly: Xenograft assay for tumor suppression. Type of test: in vivo. The conditions noted are these: Hep3B xenograft in nude mouse, two intratumoral doses 4 days apart, measured 4 days after second dose; FIG. 4. The procedure: Using a xenograft assay method, it was confirmed whether the DUSP1 inhibitor of the present invention has the potency of inhibiting the cell growth of a liver cancer.
A human liver cancer cell line Hep3B of 1×10^7 was injected into the subcutaneous layer of the back of a nude mouse in DMEM medium, and then when the cell line was 200 to 500 mm^3 in size, it was extracted and inserted into the subcutaneous layer of the back of a new nude mouse in the size of 5×5×5 mm.
The primary and secondary compounds 7 were administered intratumorally at concentrations of 3 μg and 6 μg, respectively, and the primary and secondary compounds 8 were administered intratumorally at concentrations of 2 μg and 4 μg, respectively.

For test [4], the system named is human liver cancer cell line Hep3B. Kind of test: MTT analysis of liver cancer cell growth inhibition. It counts as cell-based. The following applies: 96 hours, unit assumed. The procedure:
as §1, §2, §3, §4

For another test, the system named is PC12 neuron. Put plainly: Neurite outgrowth assay with NGF. It counts as cell-based. The following applies: PC12, phase contrast microscope, 72 hours. Here is the method:
The Neurite outgrowth assay was carried out with PC12 neuron by appropriately modifying the protocol described in Ishima et al., (2015) Potentiation of neurite outgrowth by brexpiprazole, a novel serotonin-dopamine activity modulator: A role for serotonin 5-HT1A and 5-HT2A receptors. Eur. Neuropsychopharm. 25, 505-511.
The PC12 neurite cells were distributed by the Korea Cell Line Bank (Seoul National University in Korea) and prepared in a 96-well plate at a density of 7,000 cells/well. The cell culture was performed in Dulbeco's Modified Eagle's Media (DMEM), 10% FBS and 1% Anti-anti (Gibco).

Test [5] addresses T1, DUSP1 enzyme (activation domain, amino acid residues 166-316). The conditions noted are these: comparison value quoted in text; read-out: IC50 value of known selective DUSP1 inhibitor; cited from earlier work.

Broadly, the IC50 is the concentration that gives 50% inhibition. As for `CC(C)C(=O)c1c(Nc2cc(Cl)cc(Cl)c2)[nH]c2c(Cl)ccc([N+](=O)[O-])c2c1=O` [Compound 1], the IC50 in test [1] is 5.1 µM.

In test [1], `CC(C)CC(=O)c1c(Nc2cc(Cl)cc(Cl)c2)[nH]c2c(Cl)ccc([N+](=O)[O-])c2c1=O` [Compound 7] registered an IC50 of 3.5 µM. Further, the “cell growth rate (MTT), BNL-CL2 cell line, compound concentration […]” value (from here on “cell growth rate (MTT), BNL-CL2 cell line … […]”) in test [2] is listed as 156. Further, the tumor size reduction result in test [3] was “about 70%”.

On to `CC(=O)c1c(Nc2cc(C(F)(F)F)cc(C(F)(F)F)c2)[nH]c2c(Cl)ccc(F)c2c1=O` [Compound 6], for which the IC50 in test [1] came out at 4.2 µM. In test [2], the cell growth rate (MTT), BNL-CL2 cell line, compound concentration 5.0 μM came to 8% and the “cell growth rate (MTT), BNL-CL2 cell line … […]” value came to 111. In test [4], this compound displayed a cell growth rate (MTT), HEP3B cell line, compound concentration 5.0 μM of 14%. The “induction of neurite outgrowth” value in the test with PC12 neuron is “shape of neurites stretching from the cell can be confirmed”.

Compound `CC(=O)c1c(Nc2ccc(Cl)cc2Cl)[nH]c2c(Cl)ccc(F)c2c1=O` [Compound 3] showed an IC50 in test [1] of 7.5 µM.

In turn, `CC(C)CC(=O)c1c(Nc2cccc(Cl)c2Cl)[nH]c2c(Cl)ccc([N+](=O)[O-])c2c1=O` [Compound 8] yielded an IC50 in test [1] of 4.8 µM. In test [2], the cell growth rate (MTT), BNL-CL2 cell line, compound concentration 5.0 μM turned out to be 54% and the “cell growth rate (MTT), BNL-CL2 cell line … […]” value came out at 139. The cell growth rate (MTT), HEP3B cell line, compound concentration 5.0 μM in test [4] was 16%. Also, in test [3], the tumor size reduction entry is “about 85%”.

In the case of `O=C(c1c(Nc2cc(Cl)cc(Cl)c2)[nH]c2c(Cl)ccc([N+](=O)[O-])c2c1=O)C1CC1` [Compound 5], the IC50 in test [1] was 4.1 µM.

The compound `CC(=O)c1c(Nc2ccc(Br)cc2Br)[nH]c2c(Cl)ccc(F)c2c1=O` [Compound 4] gave an IC50 in test [1] of 6.1 µM.

Take `C[n+]1cc2c3c(ccc2c2ccc4cc5c(cc4c21)OCO5)OCO3` [Sanguinarin]: the IC50 in test [5] was 10 µM.
